Test results as given in publication PMC4728560 (Scientific Reports, 2016).

System: cBid+Bax
Test: Control liposome permeabilization without Bcl-xL, cBid+Bax
Format: biochemical
Conditions: 320 nM pH9 treated TCTP, 100 nM Bax, 20 nM cBid
Method: (A–E) in vitro reconstitution assay on liposome permeabilization. […] The treated Bcl-xL was then added to reactions containing ANTS-DPX liposomes, 100 nM Bax and 20 nM of either cBid (A,B) or cBidmt1(C,D) at pH 7. Liposome permeabilization was quantified by fluorescence after 5h incubation at 37 °C where 100% release was defined as the fluorescence change due to lipid solubilization with 1% Triton X-100. […] Error bars, std. dev. n = 3. To compare between the TCTP treated groups and the Control group statistically, two-way ANOVA test was performed for (A–D) and one-way ANOVA test was performed for (E). […] Colored asterisks above each data point indicate the statistical significance (*p < 0.05; **p < 0.01, no asterisks if p ≥ 0.05). A complete statistical analysis is provided in Supplementary Table 2–4. (F) Permeabilization assays of mitochondrial membrane by tBid and Bax assessing cytochrome c release. […] Cyto c extra-mito: in the supernatant, analysed by Western blot. […]
Figure 10 A,B) or cBid mt1 (Supplementary Figure 10 C,D) at pH 7 to quantify the activity of Bcl-xL inhibition of liposome permeablization. […]
the Control group (No TCTP) were analyzed through Dunnett's multiple comparisons test at each sample condition (Bcl-XL concentration) for statistical significance. […]
Statistical significance was analyzed through Dunnett's multiple comparisons test. […]

TCTP: Translationally Controlled Tumor Protein (TCTP/tpt1), recombinant full-length
effect on cBid-Bax induced permeabilization not containing Bcl-xL: no effect
